Values after ≈ are worked out from the molar mass of the structure shown.
Tests used:
M. tuberculosis H37Rv [1] = experiment: MIC against Mtb H37Rv; format: cell-based, Mycobacterium tuberculosis; conditions: Mycobacterium tuberculosis, H37RV
[2] = system: ClpP1(7‐200) ClpP2(16‐214) enzyme complex; experiment: Intact protein MS; format: binding, Mycobacterium tuberculosis; conditions: 100 μM compound, 10 μM enzyme, 1 h
Procedure: 10 μM of the ClpP1(7‐200) ClpP2(16‐214) enzyme complex was incubated with DMSO (as negative control) and 100 μM GDI‐5755 separately in 30 mM PIPES buffer only at room temperature in a final reaction volume of 40 μl. After 1 h of incubation, the samples were sent to a service lab at Peking University for a Matrix‐Assisted Laser Desorption/Ionization (MALDI) Time‐of‐Flight (TOF) MS analysis.

Mtb ClpP1P2 = Mtb ClpP1P2 (Mycobacterium tuberculosis, UniProt P9WPC3+P9WPC5); experiment: k obs/[I] determination from progress curves; format: biochemical; conditions: no pre‐incubation, 50 nM ClpP1P2, 200 µM substrate
Procedure: 10 µM ClpP1P2 was pre‐incubated with 10 µM GDI‐5755 or DMSO solvent for 60 min at room temperature. To induce the formation of the [EI] complex, 0.5 mM Bz‐HT was also added. The mixture was diluted 100‐, 200‐, or 400‐fold to a 50 µl final volume with the peptidase reaction buffer and 20 μM substrate to start the jump dilution experiment. Fluorescence was recorded every 5 min continuously over a 220‐min course. To determine the k obs of the competitive inhibitor, the compound was dispended into a black 384‐well plate in a twofold concentration gradient from 20 µM to 0.5 µM. Without pre‐incubation, the other components (50 nM ClpP1P2, 200 µM substrate, and 0.5 mM Bz‐HT in the PIPES buffer as above) were added like in the peptidase degradation assay. The progress was monitored by continuously recording the fluorescence readouts. The fluorescence vs reaction time in seconds was fitted into Equation (2) using GraphPad Prism 10. (2) [P]=νst+νi−νs/kobs[1−exp(−kobst)] where P represents the product concentration, v s is the steady‐state reaction rate (0 in this case), v i is the initial rate, t is a time point, and k obs is the first‐order rate constant for onset of inhibition. The k obs values obtained were plotted against the inhibitor concentration and fitted into linear regression to yield k obs/[I] values as the slope, indicating the inhibition potency of the compound.

[3] = system: GH200 (scrambled sgRNA control); format: cell-based, M. bovis BCG
[4] = Hydrolysis in protein‐free buffer (data not published); format: physicochemical; conditions: over time
M. tuberculosis H37Rv [5] = system: M. tuberculosis H37Rv; set-up: method as in PubChem; conditions: ref PubChem; cited from earlier work
ClpP1P2 = experiment: Jump dilution experiment; format: biochemical, Mycobacterium tuberculosis; conditions: 10 µM, 1 h pre‐incubation, diluted to 100 nM, 4‐h course

Sequence of Mtb ClpP1P2 (P9WPC3 16-214, one chain of several): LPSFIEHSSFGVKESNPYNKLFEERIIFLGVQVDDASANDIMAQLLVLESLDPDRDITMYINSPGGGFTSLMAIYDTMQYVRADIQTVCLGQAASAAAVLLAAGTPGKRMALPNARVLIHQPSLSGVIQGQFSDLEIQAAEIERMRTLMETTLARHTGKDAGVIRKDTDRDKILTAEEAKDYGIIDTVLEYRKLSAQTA

O=C(Oc1ccc(Cl)cc1)c1ccc(N2CCOCC2)c([N+](=O)[O-])c1 [GDI‐5755]
MIC90 (M. tuberculosis H37Rv [1]): 100 µM (≈ 36.3 µg/mL)
mass difference between new species and ClpP1 [2]: 234.30 Da
mass of ClpP2 after treatment [2]: unchanged
inactivation efficiency k obs/[I] (Mtb ClpP1P2): 178 ± 10.7 M⁻¹ s⁻¹
MIC shift against GH200 on ATc induction [3]: did not show shifting
stability in protein‐free buffer [4]: susceptible to hydrolysis
MIC against H37Rv, reported (M. tuberculosis H37Rv [5]): 3.16 µM (≈ 1.15 µg/mL)
recovery of peptidase activity after jump dilution (ClpP1P2): did not show recovery of peptidase activity
